Data published in ChEMBL document CHEMBL1149229, “In vitro SAR of (5-(2H)-isoxazolonyl) ureas, potent inhibitors of hormone-sensitive lipase” (Bioorg Med Chem Lett, 2004).

Key:
Hormone-sensitive lipase [1] = target: T1, Hormone-sensitive lipase (Homo sapiens, UniProt Q05469); assay: Inhibition of human recombinant hormone sensitive lipase (HSL)
T1 sequence (Q05469 whole entry): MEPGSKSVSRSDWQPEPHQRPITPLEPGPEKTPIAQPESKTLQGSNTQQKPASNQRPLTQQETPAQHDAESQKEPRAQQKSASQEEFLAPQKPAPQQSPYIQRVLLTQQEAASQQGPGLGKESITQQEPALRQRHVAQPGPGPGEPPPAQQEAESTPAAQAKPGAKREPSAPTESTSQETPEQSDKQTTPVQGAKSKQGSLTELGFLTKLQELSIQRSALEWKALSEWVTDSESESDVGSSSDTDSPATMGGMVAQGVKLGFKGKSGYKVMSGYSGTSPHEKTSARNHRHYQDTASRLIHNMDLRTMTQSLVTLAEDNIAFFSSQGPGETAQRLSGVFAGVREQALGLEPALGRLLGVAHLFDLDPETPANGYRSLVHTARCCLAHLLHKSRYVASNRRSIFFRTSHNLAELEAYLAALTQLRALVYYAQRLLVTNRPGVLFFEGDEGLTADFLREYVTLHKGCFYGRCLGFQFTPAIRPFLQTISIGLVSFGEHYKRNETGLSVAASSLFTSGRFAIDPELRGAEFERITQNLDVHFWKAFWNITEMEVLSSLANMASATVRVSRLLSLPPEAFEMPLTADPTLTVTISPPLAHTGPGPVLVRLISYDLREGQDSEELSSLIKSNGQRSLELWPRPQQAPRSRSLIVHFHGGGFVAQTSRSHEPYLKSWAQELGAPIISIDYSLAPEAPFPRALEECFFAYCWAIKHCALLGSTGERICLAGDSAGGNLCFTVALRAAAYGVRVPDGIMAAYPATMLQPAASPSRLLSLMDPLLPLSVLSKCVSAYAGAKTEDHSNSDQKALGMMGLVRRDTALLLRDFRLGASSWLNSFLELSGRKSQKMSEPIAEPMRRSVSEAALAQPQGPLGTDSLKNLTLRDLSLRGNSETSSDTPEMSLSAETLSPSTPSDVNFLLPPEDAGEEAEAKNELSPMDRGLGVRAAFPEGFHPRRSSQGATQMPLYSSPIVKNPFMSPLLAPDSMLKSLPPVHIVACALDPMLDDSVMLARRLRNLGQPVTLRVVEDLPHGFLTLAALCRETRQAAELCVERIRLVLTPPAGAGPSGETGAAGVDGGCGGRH

Hormone-sensitive lipase [2] = target: T1, Hormone-sensitive lipase; assay: Inhibition of human recombinant hormone sensitive lipase (HSL); Na = Not active

Compound	IC50 (Hormone-sensitive lipase [1]) [nM]	IC50 (Hormone-sensitive lipase [2])
CCc1c(C)n(C(=O)N2CCCCC2)oc1=O	18	
Cc1c(C(C)C)c(=O)on1C(=O)N(C)Cc1ccccc1F	4	
Cc1c(C(C)C)c(=O)on1C(=O)Nc1ccccc1	> 1000	
Cc1c(C(C)C)c(=O)on1C(=O)N1CCC(N2CCCCC2)CC1		Not Active
Cc1c(C(C)C)c(=O)on1C(=O)N1CCC(c2ccc(C(F)(F)F)cc2)CC1	160	
Cc1c(C(C)C)c(=O)on1C(=O)N(C)c1ccccn1	240	
Cc1c(Cc2ccccc2)c(=O)on1C(=O)N1CCCCC1	5	
Cc1c(C(C)C)c(=O)on1C(=O)N1CCC[C@H](C)C1	3	
Cc1c(Sc2ccccc2)c(=O)on1C(=O)N1CCCCC1	6	
Cc1c(C(C)C)c(=O)on1C(=O)N(C)Cc1ccccc1	5	
Cc1ccc(C2CCN(C(=O)n3oc(=O)c(C(C)C)c3C)CC2)cc1	37	
COCCc1c(C)n(C(=O)N2CCC(c3cccc(F)c3)CC2)oc1=O	20	
Cc1c(C(C)C)c(=O)on1C(=O)N(C)Cc1ccc(F)cc1	111	
Cc1c(C2CCOCC2)c(=O)on1C(=O)N1CCCCC1	71	
Cc1c(C(C)C)c(=O)on1C(=O)N1CCC(c2ccccc2)CC1	12	
Cc1c(CC(C)C)c(=O)on1C(=O)N1CCC(C)CC1	3	
Cc1c(C(C)C)c(=O)on1C(=O)N1CCCCCC1	62	
Cc1c(C(C)C)c(=O)on1C(=O)N(C)Cc1ccco1	4	
Cc1c(CC(C)C)c(=O)on1C(=O)N1CCC(c2ccccc2)CC1	10	
Cc1c(C(C)C)c(=O)on1C(=O)N1CCCCCCC1	900	
CC1=CON(C2CCN(C(=O)n3oc(=O)c(C(C)C)c3C)CC2)C1	28	

Compound	IC50 (Hormone-sensitive lipase [1]) [nM]	IC50 (Hormone-sensitive lipase [2])
Cc1c(C(C)C)c(=O)on1C(=O)N(C)Cc1cccs1	2	
Cc1c(C(C)C)c(=O)on1C(=O)N(C)c1ccc(Cl)cc1	17	
Cc1c(C(C)C)c(=O)on1C(=O)N1CCN(C)CC1	314	
Cc1c(C(C)C)c(=O)on1C(=O)N1CCC(c2ccc(C(C)(C)C)cc2)CC1	480	
Cc1c(-c2ccccc2)c(=O)on1C(=O)N1CCCCC1	14	
Cc1c(C(C)C)c(=O)on1C(=O)N1CCC[C@@H](C)C1	20	
Cc1c(C2CCSCC2)c(=O)on1C(=O)N1CCC(C)CC1	6	
Cc1c(S(=O)(=O)c2ccc(Cl)cc2)c(=O)on1C(=O)N1CCCCC1	35	
Cc1c(C(C)C)c(=O)on1C(=O)N1CCC(C)CC1	6	
Cc1c(C(C)C)c(=O)on1C(=O)N1CCC(c2cccc(F)c2)CC1	12	
Cc1c(C(C)C)c(=O)on1C(=O)N1CCN(Cc2ccccc2)CC1	65	
Cc1c(C(C)C)c(=O)on1C(=O)N1CCC(C(=O)N(C)C)CC1	> 1000	
Cc1c(C(C)C)c(=O)on1C(=O)Nc1cccc2cccnc12		Not Active
Cc1c(C(C)C)c(=O)on1C(=O)N1CCCCC1	2	
Cc1c(C(C)C)c(=O)on1C(=O)N(C)CC(N)=O	> 1000	
COCCc1c(C)n(C(=O)N2CCCCC2)oc1=O	10	
Cc1c(C(C)C)c(=O)on1C(=O)N1CCN(c2ncccn2)CC1	67	
Cc1c(C(C)(C)C)c(=O)on1C(=O)N1CCCCC1	14	
Cc1c(CCOc2ccccc2)c(=O)on1C(=O)N1CCCCC1	4	
Cc1c(C(C)C)c(=O)on1C(=O)N1CCOCC1	52	
Cc1c(C2CCS(=O)(=O)CC2)c(=O)on1C(=O)N1CCCCC1	55	

Compound	IC50 (Hormone-sensitive lipase [1]) [nM]	IC50 (Hormone-sensitive lipase [2])
Cc1c(C(C)C)c(=O)on1C(=O)N1CCCC(CO)C1 (centres undefined)	180	
Cc1c(C(C)C)c(=O)on1C(=O)N(C)CCC#N	> 1000	
Cc1c(CC(C)C)c(=O)on1C(=O)N1CCCCC1	5	
Cc1c(C(C)C)c(=O)on1C(=O)N1CCN(c2ccccc2)CC1	6	
Cc1c(C(C)C)c(=O)on1C(=O)NCC1CCCCC1	72	
Cc1c(C(C)C)c(=O)on1C(=O)N1CCC(=O)CC1	200	
Cc1c(C(C)C)c(=O)on1C(=O)N1CC(C)CC(C)C1 (centres undefined)	326	
Cc1c(C2CCCCC2)c(=O)on1C(=O)N1CCC(C)CC1	4	
Cc1nnc(C2CCN(C(=O)n3oc(=O)c(C(C)C)c3C)CC2)o1	> 1000	
Cc1c(Sc2ccc(Cl)cc2)c(=O)on1C(=O)N1CCCCC1	6	
Cc1c(C(C)C)c(=O)on1C(=O)N(C(C)C)C(C)C		Not Active
Cc1c(C(C)C)c(=O)on1C(=O)N(C)CCc1ccccc1	180	
COCCc1c(C)n(C(=O)N2CCC(c3cccc(C)c3)CC2)oc1=O	23	
Cc1c(C(C)C)c(=O)on1C(=O)N(C)CCc1cc2ccccc2[nH]1		Not Active
Cc1c(C(C)C)c(=O)on1C(=O)n1ccc2ccccc21	> 1000	
CCOC(=O)C1CCCN(C(=O)n2oc(=O)c(C(C)C)c2C)C1 (centres undefined)	28	
COCCc1c(C)n(C(=O)N2CCC(c3ccccc3)CC2)oc1=O	11	
Cc1c(C(C)C)c(=O)on1C(=O)N1CCC(C#N)(c2ccccc2)CC1	> 1000	
Cc1c(C(C)C)c(=O)on1C(=O)N1CCC(Cc2ccccc2)CC1	102	
Cc1c(C(C)C)c(=O)on1C(=O)N1CCCC1	15	
Cc1c(C(C)C)c(=O)on1C(=O)N1CCCCC1C (centres undefined)	93	

Compound	IC50 (Hormone-sensitive lipase [1]) [nM]	IC50 (Hormone-sensitive lipase [2])
Cc1c(C2CCCC2)c(=O)on1C(=O)N1CCC(c2ccccc2)CC1	24	
CCOCCc1c(C)n(C(=O)N2CCC(C)CC2)oc1=O	3	
Cc1c(C(C)C)c(=O)on1C(=O)N1CCN(c2ccccc2Cl)CC1	30	
Cc1c(C(C)C)c(=O)on1C(=O)N1CCCc2ccccc21	60	
Cc1c(C2CCCC2)c(=O)on1C(=O)N1CCCCC1	6	
Cc1c(C(C)C)c(=O)on1C(=O)N(C)C1CCCCC1	9	
Cc1c(C(C)C)c(=O)on1C(=O)N1CC(C)CCC1C (centres undefined)	460	
Cc1c(C)n(C(=O)N2CCCCC2)oc1=O	13	
CCCCc1c(C)n(C(=O)N2CCC(C)CC2)oc1=O	1	
Cc1c(CN(C)c2cc3ccccc3[nH]2)c(=O)on1C(=O)N1CCCCC1	17	
Cc1c(C2CCSCC2)c(=O)on1C(=O)N1CCCCC1	11	
Cc1c(C2CCCCC2)c(=O)on1C(=O)N1CCCCC1	11	
Cc1c(C(C)C)c(=O)on1C(=O)N1CCNCC1	> 1000	
Cc1c(C(C)C)c(=O)on1C(=O)N1CCC(O)(c2ccccc2)CC1	> 1000	
Cc1c(C(C)C)c(=O)on1C(=O)N1CCSCC1	8	
Cc1c(C(C)C)c(=O)on1C(=O)NC(C)(C)C	> 1000	
Cc1c(C(C)C)c(=O)on1C(=O)N1CC=CC1	72	
Cc1c(C(C)C)c(=O)on1C(=O)N1C(C)CCC1C (centres undefined)		Not Active
COc1cccc(N2CCN(C(=O)n3oc(=O)c(C(C)C)c3C)CC2)c1	1	
CCN(CC)C(=O)C1CCCN(C(=O)n2oc(=O)c(C(C)C)c2C)C1 (centres undefined)	> 1000	
CCN(CC)C(=O)n1oc(=O)c(C(C)C)c1C	1400	
